Data reported in the supplement of paper PMC10331698.
± gives the standard deviation of the averaged measurements.

Columns and labels:
Assay in all cases: level (log10 ratio to DMSO vehicle control); higher = higher biomarker level / cell amount than vehicle control
Settings in all cases: in DMSO
[1] = compound: CCN(CCO)S(=O)(=O)C(F)(F)C(F)(F)C(F)(F)C(F)(F)C(F)(F)C(F)(F)C(F)(F)C(F)(F)F [N-Ethyl-N-(2-hydroxyethyl)perfluorooctanesulfonamide]
Procedure: (§1)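 BioMAP Diversity Plus panel of 12 human primary cell co-culture systems (3C, 4H, LPS, SAg, BT, BF4T, BE3C, CASM3C, HDF3CGF, KF3CT, MyoF, Mphg). Compounds were added 1 h before stimulation and left for 24 h (MyoF 48 h; BT 72 h for soluble read-outs or 6 d for IgG). Biomarkers were read by ELISA, cytotoxicity by SRB, PBMC viability and proliferation by Alamar Blue. Each well value was divided by the mean of 8 DMSO control wells on the same plate and log10 transformed; duplicate blinded samples were tested at 4 concentrations.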

[2] = compound: FC(F)(F)C(F)(C(F)(F)F)C(F)(F)C(F)(F)CC1CO1 [3-(Perfluoro-3-methylbutyl)-1,2-propenoxide]
Procedure: as §1

[3] = compound: NC(=O)C(F)(F)C(F)(F)C(F)(F)F [Heptafluorobutyramide]
Procedure: as §1

[4] = compound: NC(=O)C(F)(F)C(F)(F)F [Pentafluoropropionamide]
Procedure: as §1

[5] = compound: O=C(O)C(F)(F)C(F)(F)C(F)(F)C(F)(F)C(F)(F)C(F)(F)C(F)(F)C(F)(F)C(F)(F)F [Perfluorodecanoic acid]
Procedure: as §1

[6] = compound: O=C(O)C(F)(F)C(F)(F)C(F)(F)C(F)(F)C(F)(F)C(F)(F)F [Perfluoroheptanoic acid]
Procedure: as §1

[7] = compound: O=C(O)C(F)(F)C(F)(F)OC(F)(F)F [Perfluoro-3-methoxypropanoic acid]
Procedure: as §1

Row | Test System | level (log10) ([1]; 6700 nM) | level (log10) ([1]; 20000 nM) | level (log10) ([2]; 6700 nM) | level (log10) ([2]; 20000 nM) | level (log10) ([3]; 6700 nM) | level (log10) ([3]; 20000 nM) | level (log10) ([3]; 60000 nM) | level (log10) ([4]; 6700 nM) | level (log10) ([4]; 20000 nM) | level (log10) ([4]; 60000 nM) | level (log10) ([5]; 6700 nM) | level (log10) ([5]; 20000 nM) | level (log10) ([6]; 6700 nM) | level (log10) ([6]; 20000 nM) | level (log10) ([6]; 60000 nM) | level (log10) ([7]; 6700 nM) | level (log10) ([7]; 20000 nM) | level (log10) ([7]; 60000 nM)
1 | MyoF:SRB | -0.0265 ± 0.00071 | -0.175 ± 0.07 | 0.008 ± 0.0085 | 0.005 ± 0.0042 | -0.011 ± 0.017 | -0.0035 ± 0.0078 | -0.0005 ± 0.005 | 0.0045 ± 0.0021 | -0.007 ± 0.0057 | -0.0015 ± 0.0035 | -0.033 ± 0.0014 | -0.08 ± 0.0099 | -0.0005 ± 0.00071 | 0 ± 0.0085 | -0.003 ± 0.021 | -0.005 ± 0.0042 | -0.004 ± 0.0028 | 0 ± 0.0014
2 | MyoF:TIMP-1 | -0.112 ± 0.011 | -0.0885 ± 0.0092 | -0.0165 ± 0.022 | -0.047 ± 0.052 | -0.0285 ± 0.054 | -0.0325 ± 0.05 | -0.0435 ± 0.067 | -0.053 ± 0.027 | -0.048 ± 0.034 | -0.0225 ± 0.064 | -0.0345 ± 0.035 | -0.059 ± 0.038 | -0.011 ± 0.0042 | 0.0225 ± 0.0021 | 0.0515 ± 0.0064 | 0.015 ± 0.055 | 0.0185 ± 0.033 | 0.0455 ± 0.012
3 | MyoF:alpha-SM Actin | 0.0845 ± 0.023 | -0.235 ± 0.057 | -0.009 ± 0.028 | -0.0295 ± 0.0064 | 0.0105 ± 0.033 | -0.004 ± 0.033 | 0.0015 ± 0.018 | -0.007 ± 0.02 | -0.0135 ± 0.019 | -0.0195 ± 0.018 | 0.031 ± 0.027 | -0.04 ± 0.016 | -0.028 ± 0.035 | -0.0365 ± 0.022 | -0.022 ± 0.024 | 0.0015 ± 0.00071 | 0.011 ± 0.035 | 0.039 ± 0.0028
4 | MyoF:bFGF | -0.01 ± 0.016 | -0.025 ± 0.0042 | 0.006 ± 0.0099 | -0.001 ± 0.0042 | -0.0155 ± 0.021 | 0.004 ± 0.016 | -0.001 ± 0.013 | -0.002 ± 0.0042 | 0.0105 ± 0.012 | -0.0005 ± 0.029 | 0.001 ± 0.0042 | 0.0055 ± 0.0035 | -0.029 ± 0.0085 | -0.0255 ± 0.013 | -0.0075 ± 0.0021 | 0.002 ± 0.018 | -0.004 ± 0.037 | 0.0045 ± 0.025
5 | lMphg:CCL2/MCP-1 | 0.007 ± 0.034 | 0.002 ± 0.023 | -0.0165 ± 0.012 | 0.0075 ± 0.012 | -0.0035 ± 0.0021 | -0.001 ± 0.038 | 0.0175 ± 0.042 | -0.0145 ± 0.0035 | -0.012 ± 0.0042 | 0 ± 0.03 | 0.001 ± 0.0042 | 0.0095 ± 0.023 | -0.0365 ± 0.021 | -0.019 ± 0.0042 | 0.027 ± 0.023 | -0.0175 ± 0.025 | -0.0225 ± 0.029 | -0.0075 ± 0.028
6 | lMphg:CCL3/MIP-1alpha | 0.0325 ± 0.035 | 0.112 ± 0.013 | -0.007 ± 0.0042 | 0.0345 ± 0.023 | -0.0235 ± 0.039 | -0.035 ± 0.024 | -0.0015 ± 0.00071 | -0.011 ± 0.011 | -0.0175 ± 0.0064 | 0.017 ± 0.045 | 0.004 ± 0.013 | -0.0125 ± 0.049 | -0.0265 ± 0.013 | -0.0075 ± 0.0078 | 0.018 ± 0.017 | -0.0175 ± 0.012 | -0.053 ± 0.0071 | -0.0175 ± 0.019
7 | lMphg:CD40 | -0.025 ± 0.017 | -0.0335 ± 0.018 | -0.0105 ± 0.028 | -0.021 ± 0.011 | -0.021 ± 0.011 | -0.0185 ± 0.037 | -0.0025 ± 0.025 | -0.0235 ± 0.022 | -0.017 ± 0.011 | -0.0115 ± 0.013 | -0.0025 ± 0.039 | -0.0385 ± 0.05 | -0.0045 ± 0.018 | -0.0265 ± 0.012 | -0.028 ± 0.027 | -0.0295 ± 0.03 | -0.0165 ± 0.0021 | -0.0225 ± 0.04
8 | lMphg:CD62E/E-Selectin | 0.0935 ± 0.0078 | 0.14 ± 0.0099 | 0.0085 ± 0.019 | 0.0025 ± 0.013 | 0.035 ± 0.051 | -0.009 ± 0.064 | -0.0285 ± 0.054 | -0.018 ± 0.0014 | 0.016 ± 0.014 | -0.013 ± 0.0071 | -0.026 ± 0.0028 | -0.0135 ± 0.011 | -0.026 ± 0.0028 | 0 ± 0.024 | 0.025 ± 0.018 | -0.012 ± 0.018 | -0.037 ± 0.03 | 0.019 ± 0.075
